Test results from patent US20250250300A1, “COMPOSITIONS AND METHODS FOR TREATING PSEUDOMYXOMA PERITONEI” (UNIVERSITY OF SOUTH CAROLINA, priority 2024, published 2025).
*1 amine or outer side, *2 acyl side, *3 side chain or, on linkers, in order; H or OH if unused. Where a SMILES comes first, the peptide text is derived from it. Bridges are numbered along the chain shown (N, C = ends). [ ]: non-standard residue; d: D form. The star is where a group is joined. X2 = NC(=O)C[C@@H](O)[C@@H](N[*:1])C(=O)[*:2]; d(aThr) = C[C@@H](O)[C@@H](N)C(=O)O; NMeF = CN[C@@H](Cc1ccccc1)C(=O)O; X1 = CC[C@@H](C)CCCCCCCCCCC(=O)*; dNMeN = CN[C@H](CC(N)=O)C(=O)O

What was measured:
[1] = reported; cited from earlier work
ABX023-1 cells [2] = test: seahorse mitochondrial stress assay, ABX023-1; type: cell-based, human; settings: 15 μM (for 3), after FCCP supplementation
Description: (§1) FIG. 4C depicts seahorse mitochondrial stress assay of 3 and 4 toward ABX023-1 cell lines, from which the normalized oxygen consumption rate (OCR) and normalized extracellular acidification rate (ECAR) were measured. The OCR was measured at baseline and in response to sequential injections of oligomycin (O), carbonyl cyanide-p-trifluoromethoxyphenyl-hydrazon (FCCP), and rotenone with antimycin (RA).
(§2) Next, the modulatory effect of 3 and 4 on PMP, HT-29 and FHC cells was evaluated. […] Subsequently, the effect of 3 and 4 on the mitochondrial respiration of ABX023-1 cells was measure in the seahorse mitochondrial stress assay.

[3] = test system: human fetal intestinal epithelial cells (FHC); test: crystal violet cell viability assay, FHC; type: cell-based; settings: for effect on proliferation: 33.3 μM (for 3)
Description: (§3) To evaluate whether myxomapeptin is the major contributor to the PMP inhibition, 2 were assayed against two PMP cell lines (PMP501-1 and ABX023-1), human colorectal adenocarcinoma cells (HT-29), and human fetal intestinal epithelial cells (FHC) using crystal violet cell viability assay.
as §2

ABX023-1 cells [4] = test: crystal violet cell viability assay, ABX023-1; type: cell-based, human; settings: for stimulation of proliferation: 33.3 μM (for 3)
Description: as §3, §2

FHC cells [5] = test: seahorse mitochondrial stress assay, FHC; type: cell-based, human; settings: for mitochondrial respiration (normalized OCR and ECAR): normalized per 1,000 cells
Description: as §1, with “3C” for “4C”, “2” for “3”, “5-FU (positive control)” for “4”, “FHC” for “ABX023-1”
(§4) As tumor cells requires larger energy supply that relies on mitochondrial respiration and glycolysis, we sought to explore the effect of myxomapeptins on PMP cell energy metabolism using seahorse mitochondrial stress assay. The normalized oxygen consumption rate (OCR; proportional to mitochondrial respiration) and normalized extracellular acidification rate (ECAR; proportional to glycolysis) were measured for PMP501-1 cells and FHC in the presence of 2, 5-fluorouracil (5-FU) or vehicle.
as §2

HT-29 cells [6] = test: seahorse mitochondrial stress assay, HT-29; type: cell-based, human
PMP501-1 cells [7] = test: cell viability assay (crystal violet), PMP501-1; type: cell-based, human; settings: for stimulation of proliferation: 33.3 μM (for 3)
Description: as §3, §2

[8] = test system: human colorectal adenocarcinoma cells (HT-29); test: cell viability assay (crystal violet), HT-29; type: cell-based; settings: for effect on proliferation: 33.3 μM (for 3)
Description: as §3, §2

[9] = antimicrobial activity test; type: cell-based; settings: 64 μg/mL
Description: Next, the absolute configuration of amino acid residues in 1 and 2 were determined by advanced Marfey's analysis after acid hydrolysis. After derivatization with (L)-and (D)-1-fluoro-2-4-dinitrophenyl-5-L-alanine amide (FDAA), the acid hydrolysate of 1 and 2 together with amino acid standards were analyzed by LCMS. […] Besides, the analysis allowed assignment of non-canonical amino acids as (2S,3R)-MeDap, (2R,4S)—Y—OH-Gln and (2S,3R)-B-Me-Glu in the structures of 1 and 2. Thus, the structures inclusive of absolute configuration of 1 and 2 are unambiguously assigned (FIG. 2C), and were named myxomapeptins A and B based on the source of the producing strain. Myxomapeptins are a new class of depsi cyclic lipopeptide consisting of eight amino acid residues that features N-methylation, C-methylation and hydroxylation, and a-proton epimerization.

PMP501-1 cells [10] = test: seahorse mitochondrial stress assay, PMP501-1; type: cell-based, human; settings: PMP501-1, normalized per 1,000 cells
Description: as §1, with “3B” for “4C”, “2” for “3”, “5-FU (positive control)” for “4”, “PMP501-1cell” for “ABX023-1 cell”
as §4

FHC cells [11] = test: cell uptake, LCMS of cell lysate, FHC; type: cell-based, human; settings: compound fed, 5 days of incubation
Excerpt: (§5) Due to the inability of entering target cells passively, most cyclic lipopeptides are reported to perform biological functions by disrupting cell wall biosynthesis or the integrity of cell membranes. Given that myxomapeptins influence mitochondrial respiration and glycolysis, which occur in the cytoplasm, without wishing to be bound by theory, it was hypothesized that myxomapeptins are likely able to enter PMP cells. To this end, 2 was fed into the cultures of PMP501-1, ABX023-1, HT-29 and FHC cells with normalized cell density. After 5 days of incubation and a thorough wash, the cells were lysed and extracted by butanol for LCMS analysis. By calculating the ratio of 2 in cell lysis versus control extracts, 18.9% and 26.7% of 2 were found in the lysates of PMP501-1 and ABX023-1, whereas only 6.1% and 4.1% were detected from the lysates of HT-29 and FHC, respectively (FIG. 3A).

ABX023-1 cells [12] = test: cell uptake, LCMS of cell lysate, ABX023-1; type: cell-based, human; settings: for ratio of compound in cell lysis versus control extracts: ABX023-1, compound fed, 5 days of incubation
Excerpt: as §5
(§6) Next, to study the percentage of myxomapeptins contributed by the intracellular PMP498-3 in light of the presence of PMP498-3 bacteria inside the PMP cells, the bacteria was co-cultured with the cell lines tested above.

HT-29 cells [13] = test: cell uptake, LCMS of cell lysate, HT-29; type: cell-based, human; settings: HT-29, compound fed, 5 days of incubation
Excerpt: as §5

PMP501-1 cells [14] = test: cell uptake, LCMS of cell lysate, PMP501-1; type: cell-based, human; settings: for ratio of compound in cell lysis versus control extracts: PMP501-1, compound fed, 5 days of incubation
Excerpt: as §5, §6

## CC[C@@H](C)CCCCCCCCCCC(=O)N[C@H]1C(=O)N[C@@H](CC(=O)O)C(=O)N[C@H](CO)C(=O)N[C@@H](CO)C(=O)N(C)[C@H](CC(N)=O)C(=O)N(C)[C@@H](Cc2ccccc2)C(=O)N[C@H]([C@H](O)CC(N)=O)C(=O)N[C@H](CCC(=O)O)C(=O)O[C@@H]1C [Lipopeptin A, lipopeptin A] (X1-[d(aThr)]D[dS]S[dNMeN][NMeF][X2][dE]; ester 1-C)
[1]
  antibacterial and antifungal activities: reported to possess antibacterial and antifungal activities

## O=C(O)/C=C/c1ccc(O)cc1 [Compound 3, p-coumaric acid]
ABX023-1 cells [2]
  increase of maximum respiratory capacity: 25%
[3]
  effect on proliferation: no effect
ABX023-1 cells [4]
  stimulation of proliferation: ~20%
FHC cells [5]
  stimulatory effect on oxygen consumption: no substantial stimulatory effect
HT-29 cells [6]
  stimulatory effect on oxygen consumption: no substantial stimulatory effect
PMP501-1 cells [7]
  stimulation of proliferation: ~20%
[8]
  effect on proliferation: no effect

## myxomapeptin B [Compound 2]
[9]
  antimicrobial activity: no antimicrobial activity
PMP501-1 cells [10]
  mitochondrial respiration (normalized OCR and ECAR): strongly inhibits
[3]
  IC50: > 100 µM
ABX023-1 cells [4]
  IC50: 33.7 µM
FHC cells [11]
  ratio of compound in cell lysis versus control extracts: 4.1%
ABX023-1 cells [12]
  ratio of compound in cell lysis versus control extracts: 26.7%
ABX023-1 cells [12]; ABX023-1 co-cultured with PMP498-3 bacteria
  percentage of 2 found in cell lysate: 30.2%
HT-29 cells [13]
  ratio of compound in cell lysis versus control extracts: 6.1%
FHC cells [5]
  mitochondrial respiration (normalized OCR and ECAR): not observed
PMP501-1 cells [14]
  ratio of compound in cell lysis versus control extracts: 18.9%
PMP501-1 cells [14]; PMP501-1 co-cultured with PMP498-3 bacteria
  percentage of 2 found in cell lysate: 22.5%
PMP501-1 cells [7]
  IC50: 23 µM
[8]
  IC50: > 100 µM

## O=c1[nH]cc(F)c(=O)[nH]1 [Compound 5-FU, 5-fluorouracil]
PMP501-1 cells [10]
  mitochondrial respiration (normalized OCR and ECAR): unselectively inhibited
FHC cells [5]
  mitochondrial respiration (normalized OCR and ECAR): unselectively inhibited

## myxomapeptin A [Compound 1]
[9]
  antimicrobial activity: no antimicrobial activity

## N[C@@H](Cc1ccc(O)cc1)C(=O)O [Compound 4, L-tyrosine]
ABX023-1 cells [2]
  increase of maximum respiratory capacity: do not have any effect
[3]
  effect on proliferation: no discernible effect
ABX023-1 cells [4]
  stimulation of proliferation: no discernible effect
PMP501-1 cells [7]
  stimulation of proliferation: no discernible effect
[8]
  effect on proliferation: no discernible effect

## neopeptin
[1]
  antibacterial and antifungal activities: reported to possess antibacterial and antifungal activities

## CCCCCCCCCC(=O)N[C@@H](Cc1c[nH]c2ccccc12)C(=O)N[C@H](CC(N)=O)C(=O)N[C@@H](CC(=O)O)C(=O)N[C@@H]1C(=O)NCC(=O)N[C@@H](CCCN)C(=O)N[C@@H](CC(=O)O)C(=O)N[C@H](C)C(=O)N[C@@H](CC(=O)O)C(=O)NCC(=O)N[C@H](CO)C(=O)N[C@@H]([C@H](C)CC(=O)O)C(=O)N[C@@H](CC(=O)c2ccccc2N)C(=O)O[C@@H]1C [daptomycin]
FHC cells [11]
  ratio of compound in cell lysis versus control extracts: cannot be detected
ABX023-1 cells [12]
  ratio of compound in cell lysis versus control extracts: cannot be detected
HT-29 cells [13]
  ratio of compound in cell lysis versus control extracts: cannot be detected
PMP501-1 cells [14]
  ratio of compound in cell lysis versus control extracts: cannot be detected
